This is an account of results in patent US20080146555A1, “Uses of Kinase Inhibitors and Compositions Thereof” (GPC Biotech, Inc, priority 2004, published 2008).

Counter-ions that a name gives are not always drawn. Like-named read-outs stand apart in the source and are kept apart here.

One experiment deals with CEM/C2. As to the kind of experiment: SRB cytotoxicity, camptothecin resistant cells. It counts as cell-based, human. The note with it: for IC50: Homo sapiens, CEM/C2, 72 h, SRB. On the procedure:
In these experiments, the P-glycoprotein expressing NCI-Adr resistant subline (Vickers et al., 1989. Mol Endocrinology 3 (1):157-164) was used. […] Briefly, cells were plated in 96 well dishes 24 hours prior to compound addition. Where noted, they were exposed to verapamil for 4 hours prior to compound addition and then throughout the treatment period (72 hours). The assay was terminated with the addition of cold TCA to a final concentration of 10% and the plates were incubated for one hour at 4° C. The plates were then washed 5 times with water and 100 μl of a Sulforhodamine B solution (4%) was added to each well. The plate was then incubated for 10 minutes at room temperature before removal of unbound dye by washing with 1% acetic acid.
The Camptothecin resistant CEM/C2 cells were derived from the T lymphoblastoid leukemia cell line CCRF/CEM by selection in the presence of Camptothecin in vitro (Kapoor et al., 1995. Oncology Research 7; 83-95, ATCC).
The effects of A37 and B16 were evaluated in the CCRF/CEM and CEM/C2 cells using the same SRB assay as described above, with 72-hour drug exposure.

The next experiment has as its target Cdk6 (Homo sapiens, UniProt Q00534). As to the kind of experiment: Cdk6 inhibition. Type of experiment: biochemical. From the text: (§1) Further inhibition results for subject compounds of the invention against other CDKs and further kinases are shown in Table 5, Table II and described in Example 6.
(§2) Table 3, Table 4, Table 5 and Table II show the results obtained for inhibition of a broad range of such kinases for subject compounds of the invention.

In the next experiment the target is Cdk1 (Homo sapiens, UniProt P06493). As to the kind of experiment: Cdk1 inhibition. It counts as biochemical.
Description: as §1, §2

Another experiment concerns the target T1, Yes (Homo sapiens, UniProt P07947).
T1 construct: purchased Upstate 14-478
Put plainly: Yes kinase assay. It counts as biochemical. On the procedure: • 1. 2.5× Reaction Buffer: 20 mM MOPS, 0.5 mM EDTA. • 2. Enzyme Dilution Buffer (EDB): 20 mM MOPS pH 7.0, 1 mM EDTA, 0.01% Brij-35, 5% glycerol, 0.1% β-mercaptoethanol, 1 mg/ml BSA. • 3. Yes, active: Dilute to 0.4 ng-4 ng/μl with EDB. Use 2.5 μl per assay point. • 4. Poly(Glu-4-Tyr) substrate: Prepare a 1 mg/ml stock solution. Use 2.5 μl per assay point for a final concentration of 0.1 mg/ml per assay point. • 5. [γ-^32P]ATP: Stock 1 mCi/100 μl (3000 Ci/mmol, obtained from PerkinElmer, Cat. # BLU002A). Make 10 μl aliquots (100 μCi/vial). Before starting the assay, dilute an aliquot to 1 μCi/μl with 90 μl of 75 mM MgCl2 and 500 μM cold ATP in 20 mM MOPS, pH 7.2, 25 mM β-glycerol phosphate, 5 mM EGTA, 1 mM sodium orthovanadate, 1 mM dithiothreitol.
• 1. Add 10 μl of 2.5× Reaction Buffer per assay. • 2. Add 2.5 μl of Poly(Glu-4-Tyr) substrate (0.1 mg/ml). • 3. Add 2.5 μl of Yes, active (1 ng-10 ng). • 4. Add […] of the diluted [γ-^32P]ATP solution. • 5. Incubate for 10 minutes at 30° C. • 6. Transfer a 20 μl aliquot onto the center of a 2 cm×2 cm P81 paper. • 7. Wash the assay squares three times for 5 minutes with 0.75% phosphoric acid. • 8. Wash the assay squares once for 5 minutes with acetone. • 9. Transfer the assay squares to vial and add 5 ml scintillation cocktail. • 10. Read in scintillation counter. Compare cpm of enzyme samples to cpm of control samples that contain background control.

Another experiment has as its target T2, Lyn (Homo sapiens, UniProt P07948).
T2 construct: purchased Upstate 14-510
As to the kind of experiment: Lyn kinase assay. It counts as biochemical. On the procedure:
• 1. 10× Reaction Buffer: 500 mM Tris-HCl, pH 7.5, 1 mM EGTA, 1 mM sodium orthovanadate, 1% 2-mercaptoethanol. • 2. Enzyme Dilution Buffer (EDB): 50 mM Tris-HCl, pH 7.5, 1 mM EGTA, 0.1 mM sodium orthovanadate, 0.03% Brij-35, 0.1% 2-mercaptoethanol, 1 mg/ml BSA. • 3. Lyn, active: Dilute to 2-16 ng/μl with EDB. Use 2.5 μl per assay point. • 4. Poly(Glu-4-Tyr) (4:1): Prepare a 1 mg/ml stock. Use 2.5 μl per assay point for a final concentration of 0.1 mg/ml per assay point. • 5. [γ-^32P]ATP: Stock 1 mCi/100 μl (3000 Ci/mmol, obtained from PerkinElmer, Cat. # BLU002A). Make 10 μl aliquots (100 μCi/vial). Before starting the assay, dilute an aliquot to 1 μCi/μl with 90 μl of 75 mM MgCl2 and 500 μM cold ATP in 20 mM MOPS, pH 7.2, 25 mM β-glycerol phosphate, 5 mM EGTA, 1 mM sodium orthovanadate, 1 mM dithiothreitol.
• 1. Add 2.5 μl of 10× Reaction Buffer per assay. • 2. Add 2.5 μl of Poly (Glu-4-Tyr) (4:1). • 3. Add 2.5 μl (5-40 ng) Lyn, active. • 4. Add 7.5 μl of sterile, distilled water. • 5. Add 10 μl of the diluted [γ-^32P]ATP mixture. • 6. Incubate for 10 minutes at 30° C. • 7. Transfer a 20 μl aliquot onto the center of a 2 cm×2 cm P81 paper. • 8. Wash the assay squares three times for 5 minutes with 0.75% phosphoric acid. • 9. Wash the assay squares once for 5 minutes with acetone. • 10. Transfer the assay squares to vial and add 5 ml scintillation cocktail. • 11. Read in scintillation counter. Compare cpm of enzyme samples to cpm of control samples that contain background control.

Setting [1] is: read-out: YES1 Inhibition (IC50).
Setting [2] is: read-out: LYN Inhibition (IC50).

T1 sequence (P07947 whole entry): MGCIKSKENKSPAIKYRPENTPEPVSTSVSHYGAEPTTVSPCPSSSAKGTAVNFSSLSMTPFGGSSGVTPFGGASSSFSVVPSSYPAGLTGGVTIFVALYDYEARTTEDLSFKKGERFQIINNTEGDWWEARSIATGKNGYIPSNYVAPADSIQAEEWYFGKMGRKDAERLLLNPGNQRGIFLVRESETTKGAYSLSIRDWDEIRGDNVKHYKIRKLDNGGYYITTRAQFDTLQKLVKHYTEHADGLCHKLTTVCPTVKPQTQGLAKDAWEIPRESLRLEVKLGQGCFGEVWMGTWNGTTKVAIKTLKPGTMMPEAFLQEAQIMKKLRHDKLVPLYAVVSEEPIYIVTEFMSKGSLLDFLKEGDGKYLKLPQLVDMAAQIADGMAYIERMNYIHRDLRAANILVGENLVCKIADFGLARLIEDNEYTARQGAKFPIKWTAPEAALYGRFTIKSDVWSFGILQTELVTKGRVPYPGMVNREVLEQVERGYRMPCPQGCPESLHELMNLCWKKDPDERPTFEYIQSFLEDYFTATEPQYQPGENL
T2 sequence (P07948 whole entry): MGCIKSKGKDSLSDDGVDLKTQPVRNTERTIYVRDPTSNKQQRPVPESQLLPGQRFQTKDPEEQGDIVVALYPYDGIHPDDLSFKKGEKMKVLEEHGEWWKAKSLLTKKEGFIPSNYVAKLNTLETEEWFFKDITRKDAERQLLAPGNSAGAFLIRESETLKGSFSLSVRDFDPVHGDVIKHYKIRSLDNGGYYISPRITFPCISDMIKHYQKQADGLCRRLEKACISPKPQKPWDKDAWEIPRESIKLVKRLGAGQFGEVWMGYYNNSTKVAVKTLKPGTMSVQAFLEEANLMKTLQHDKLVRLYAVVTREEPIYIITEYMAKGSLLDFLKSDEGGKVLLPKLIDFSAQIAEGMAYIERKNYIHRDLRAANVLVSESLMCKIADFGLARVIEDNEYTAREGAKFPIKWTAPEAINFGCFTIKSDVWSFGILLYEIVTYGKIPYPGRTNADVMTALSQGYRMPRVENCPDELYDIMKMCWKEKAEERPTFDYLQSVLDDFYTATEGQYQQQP
Sequence of Cdk6 (Q00534 whole entry): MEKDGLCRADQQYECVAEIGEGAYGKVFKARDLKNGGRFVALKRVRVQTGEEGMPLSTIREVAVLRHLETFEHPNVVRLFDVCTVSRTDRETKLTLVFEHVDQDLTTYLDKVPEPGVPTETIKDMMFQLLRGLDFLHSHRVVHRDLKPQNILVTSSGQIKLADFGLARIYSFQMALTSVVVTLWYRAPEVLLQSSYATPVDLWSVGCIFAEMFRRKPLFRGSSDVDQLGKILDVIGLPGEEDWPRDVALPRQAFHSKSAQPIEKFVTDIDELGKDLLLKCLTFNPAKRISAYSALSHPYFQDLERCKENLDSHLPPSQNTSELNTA
Sequence of Cdk6 (P30279 whole entry partner): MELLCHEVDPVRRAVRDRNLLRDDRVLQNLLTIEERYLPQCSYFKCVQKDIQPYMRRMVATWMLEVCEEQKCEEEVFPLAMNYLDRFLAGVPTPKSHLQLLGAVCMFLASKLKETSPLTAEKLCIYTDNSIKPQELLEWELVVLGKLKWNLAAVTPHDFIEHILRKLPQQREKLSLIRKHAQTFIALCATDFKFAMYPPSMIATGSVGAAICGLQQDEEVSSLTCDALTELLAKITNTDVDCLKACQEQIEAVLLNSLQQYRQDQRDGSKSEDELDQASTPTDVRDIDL
Sequence of Cdk1 (P06493 whole entry, species assumed): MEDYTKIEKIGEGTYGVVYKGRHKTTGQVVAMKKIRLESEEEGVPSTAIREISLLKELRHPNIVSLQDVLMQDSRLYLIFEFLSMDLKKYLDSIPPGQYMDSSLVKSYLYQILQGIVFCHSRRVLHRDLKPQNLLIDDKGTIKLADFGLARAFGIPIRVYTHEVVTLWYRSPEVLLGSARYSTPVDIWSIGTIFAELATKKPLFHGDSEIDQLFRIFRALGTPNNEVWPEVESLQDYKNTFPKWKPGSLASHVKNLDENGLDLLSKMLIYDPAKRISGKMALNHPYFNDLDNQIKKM
Sequence of Cdk1 (P14635 whole entry partner, species assumed): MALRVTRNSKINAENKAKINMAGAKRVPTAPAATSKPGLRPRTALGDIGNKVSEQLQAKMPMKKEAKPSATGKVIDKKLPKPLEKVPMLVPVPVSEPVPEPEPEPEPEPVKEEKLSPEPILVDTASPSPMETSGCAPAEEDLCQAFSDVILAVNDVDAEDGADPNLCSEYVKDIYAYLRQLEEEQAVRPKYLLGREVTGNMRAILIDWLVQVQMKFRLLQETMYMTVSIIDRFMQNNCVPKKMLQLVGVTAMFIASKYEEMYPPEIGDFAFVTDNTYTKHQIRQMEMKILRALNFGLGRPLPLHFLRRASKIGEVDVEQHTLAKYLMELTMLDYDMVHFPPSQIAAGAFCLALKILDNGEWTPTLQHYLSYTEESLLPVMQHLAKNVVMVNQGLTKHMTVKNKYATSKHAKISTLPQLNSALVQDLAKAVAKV

In general, IC50 refers to the midpoint of a concentration-inhibition curve. Regarding `CC(C)N1CCN(C(=O)COc2ccc(-c3n[nH]c4c3C(=O)c3c(NC(=O)NN5CCOCC5)cccc3-4)cc2)CC1` [Compound A37], the “RR (relative resistance) CEM/C2 vs CEM” value with CEM/C2 is on record as 0.72. Further, the IC50 is 15.3 nM in the experiment with CEM/C2; less than 100 nM on Cdk6; less than 50 nM against Cdk1; less than 50 nM at Yes (setting [1]); less than 50 nM at Lyn (setting [2]).

Consider `COCCN1CCN(Cc2ccc(-c3n[nH]c4c3C(=O)c3c(NC(=O)NN5CCOCC5)cccc3-4)cc2)CC1` [Compound B16, N-[3-(4-{[4-(2-methoxyethyl)piperazinyl]methyl}phenyl)-4-oxoindeno[2,3-d]pyrazol-5-yl](morpholin-4-ylamino)carboxamide dihydrochloride], for which, in the experiment with CEM/C2, the “RR (relative resistance) CEM/C2 vs CEM” value amounted to 1.01. For the same compound, the IC50 was 25.3 nM in the experiment on CEM/C2; less than 50 nM at Cdk6; less than 5 nM on Cdk1; less than 100 nM at Yes (kinase panel, 10 μM ATP, read-out: Yes IC50); less than 50 nM on Yes (setting [1]); less than 100 nM on Lyn (kinase panel, 10 μM ATP, read-out: Lyn IC50). For the same compound, the IC50 on Lyn (setting [2]) was less than 100 nM.
